Numbers after ± are expanded uncertainties.
Details: Liquid, Vibrating tube method

CCCCCCCCCC [decane]
Details	mass density [kg/m3]
313.09 K, 1048 kPa	715.63 ± 0.56
313.09 K, 2010 kPa	716.43 ± 0.56
313.09 K, 2997 kPa	717.28 ± 0.56
313.09 K, 4060 kPa	718.18 ± 0.57
313.09 K, 5029 kPa	718.98 ± 0.57
313.09 K, 6019 kPa	719.8 ± 0.57
313.09 K, 7016 kPa	720.64 ± 0.58
313.09 K, 8050 kPa	721.47 ± 0.58
313.09 K, 9000 kPa	722.24 ± 0.58
313.09 K, 10029 kPa	723.06 ± 0.59
313.09 K, 11016 kPa	723.85 ± 0.59
313.09 K, 12012 kPa	724.63 ± 0.6
313.09 K, 13027 kPa	725.4 ± 0.6
313.09 K, 14011 kPa	726.15 ± 0.6
313.09 K, 15010 kPa	726.91 ± 0.61
313.09 K, 16030 kPa	727.65 ± 0.61
313.09 K, 17016 kPa	728.38 ± 0.62
313.09 K, 18037 kPa	729.1 ± 0.62
313.09 K, 19000 kPa	729.81 ± 0.63
313.09 K, 20019 kPa	730.5 ± 0.63
313.09 K, 21014 kPa	731.21 ± 0.63
313.09 K, 22032 kPa	731.92 ± 0.64
313.09 K, 23021 kPa	732.62 ± 0.64
313.09 K, 24016 kPa	733.33 ± 0.65
313.09 K, 25012 kPa	734.06 ± 0.65
323.03 K, 1025 kPa	707.94 ± 0.56
323.03 K, 2017 kPa	708.85 ± 0.56
323.03 K, 3015 kPa	709.76 ± 0.56
323.03 K, 4018 kPa	710.65 ± 0.57
323.03 K, 5022 kPa	711.53 ± 0.57
323.03 K, 6021 kPa	712.41 ± 0.57
323.03 K, 7018 kPa	713.31 ± 0.58
323.03 K, 8022 kPa	714.15 ± 0.58
323.03 K, 9016 kPa	715.01 ± 0.58
323.03 K, 10012 kPa	715.84 ± 0.59
323.03 K, 11022 kPa	716.67 ± 0.59
323.03 K, 12015 kPa	717.51 ± 0.6
323.03 K, 13020 kPa	718.33 ± 0.6
323.03 K, 14011 kPa	719.12 ± 0.6
323.03 K, 15010 kPa	719.9 ± 0.61
323.03 K, 16019 kPa	720.71 ± 0.61
323.03 K, 17010 kPa	721.46 ± 0.62
323.03 K, 18013 kPa	722.22 ± 0.62
323.03 K, 19033 kPa	723 ± 0.63
323.03 K, 20022 kPa	723.74 ± 0.63
323.03 K, 21014 kPa	724.45 ± 0.64
323.03 K, 22023 kPa	725.22 ± 0.64
323.03 K, 23025 kPa	725.93 ± 0.65
323.03 K, 24016 kPa	726.68 ± 0.65
323.03 K, 25021 kPa	727.42 ± 0.66
332.95 K, 1022 kPa	700.4 ± 0.56
332.95 K, 2005 kPa	701.33 ± 0.56
332.95 K, 3025 kPa	702.32 ± 0.56
332.95 K, 4025 kPa	703.25 ± 0.56
332.95 K, 5018 kPa	704.2 ± 0.57
332.95 K, 6018 kPa	705.12 ± 0.57
332.95 K, 7019 kPa	706.08 ± 0.58
332.95 K, 8023 kPa	706.96 ± 0.58
332.95 K, 9021 kPa	707.89 ± 0.58
332.95 K, 10017 kPa	708.78 ± 0.59
332.95 K, 11033 kPa	709.68 ± 0.59
332.95 K, 12023 kPa	710.54 ± 0.6
332.95 K, 13009 kPa	711.42 ± 0.6
332.95 K, 14016 kPa	712.21 ± 0.6
332.95 K, 15025 kPa	713.05 ± 0.61
332.95 K, 16011 kPa	713.87 ± 0.61
332.95 K, 17017 kPa	714.69 ± 0.62
332.95 K, 18016 kPa	715.5 ± 0.62
332.95 K, 19015 kPa	716.28 ± 0.63
332.95 K, 20029 kPa	717.09 ± 0.63
332.95 K, 21001 kPa	717.84 ± 0.64
332.95 K, 22034 kPa	718.63 ± 0.64
332.95 K, 23017 kPa	719.41 ± 0.65
332.95 K, 24023 kPa	720.18 ± 0.65
332.95 K, 25002 kPa	720.95 ± 0.66
343.8 K, 1014 kPa	692.56 ± 0.55
343.8 K, 2027 kPa	693.64 ± 0.56
343.8 K, 3016 kPa	694.64 ± 0.56
343.8 K, 4020 kPa	695.65 ± 0.56
343.8 K, 5016 kPa	696.67 ± 0.57
343.8 K, 6019 kPa	697.68 ± 0.57
343.8 K, 7026 kPa	698.66 ± 0.58
343.8 K, 8022 kPa	699.65 ± 0.58
343.8 K, 9014 kPa	700.58 ± 0.58
343.8 K, 10017 kPa	701.53 ± 0.59
343.8 K, 11022 kPa	702.48 ± 0.59
343.8 K, 12021 kPa	703.39 ± 0.6
343.8 K, 13011 kPa	704.27 ± 0.6
343.8 K, 14013 kPa	705.16 ± 0.61
343.8 K, 15025 kPa	706.05 ± 0.61
343.8 K, 16019 kPa	706.94 ± 0.61
343.8 K, 17010 kPa	707.79 ± 0.62
343.8 K, 18023 kPa	708.61 ± 0.62
343.8 K, 19030 kPa	709.47 ± 0.63
343.8 K, 20008 kPa	710.25 ± 0.64
343.8 K, 21017 kPa	711.1 ± 0.64
343.8 K, 22035 kPa	711.92 ± 0.65
343.8 K, 23004 kPa	712.73 ± 0.65
343.8 K, 24008 kPa	713.53 ± 0.66
343.8 K, 25103 kPa	714.44 ± 0.66
352.71 K, 2132 kPa	686.04 ± 0.56
352.71 K, 3053 kPa	687.07 ± 0.56
352.71 K, 4028 kPa	688.15 ± 0.56
352.71 K, 5028 kPa	689.19 ± 0.57
352.71 K, 6065 kPa	690.28 ± 0.57
352.71 K, 7007 kPa	691.26 ± 0.57
352.71 K, 8041 kPa	692.36 ± 0.58
352.71 K, 9064 kPa	693.4 ± 0.58
352.71 K, 10047 kPa	694.38 ± 0.59
352.71 K, 11019 kPa	695.38 ± 0.59
352.71 K, 12012 kPa	696.31 ± 0.6
352.71 K, 13031 kPa	697.31 ± 0.6
352.71 K, 14010 kPa	698.18 ± 0.61
352.71 K, 15014 kPa	699.14 ± 0.61
352.71 K, 16012 kPa	700.05 ± 0.62
352.71 K, 17008 kPa	700.95 ± 0.62
352.71 K, 17959 kPa	701.8 ± 0.63
352.71 K, 19020 kPa	702.7 ± 0.63
352.71 K, 20044 kPa	703.6 ± 0.64
352.71 K, 21044 kPa	704.46 ± 0.64
352.71 K, 22024 kPa	705.31 ± 0.65
352.71 K, 23009 kPa	706.13 ± 0.65
352.71 K, 24014 kPa	707 ± 0.66
352.71 K, 25000 kPa	707.86 ± 0.66
362.63 K, 2054 kPa	678.23 ± 0.55
362.63 K, 3010 kPa	679.34 ± 0.56
362.63 K, 4132 kPa	680.68 ± 0.56
362.63 K, 5020 kPa	681.68 ± 0.57
362.63 K, 6026 kPa	682.79 ± 0.57
362.63 K, 7042 kPa	683.95 ± 0.57
362.63 K, 8057 kPa	685.06 ± 0.58
362.63 K, 9014 kPa	686.08 ± 0.58
362.63 K, 10034 kPa	687.17 ± 0.59
362.63 K, 10999 kPa	688.24 ± 0.59
362.63 K, 12014 kPa	689.26 ± 0.6
362.63 K, 13025 kPa	690.26 ± 0.6
362.63 K, 13992 kPa	691.22 ± 0.61
362.63 K, 15019 kPa	692.24 ± 0.61
362.63 K, 16004 kPa	693.18 ± 0.62
362.63 K, 17008 kPa	694.11 ± 0.62
362.63 K, 18002 kPa	695.04 ± 0.63
362.63 K, 19037 kPa	696.02 ± 0.63
362.63 K, 20027 kPa	696.93 ± 0.64
362.63 K, 21030 kPa	697.8 ± 0.64
362.63 K, 22003 kPa	698.73 ± 0.65
362.63 K, 23027 kPa	699.61 ± 0.66
362.63 K, 24046 kPa	700.55 ± 0.66
362.63 K, 25011 kPa	701.39 ± 0.67

From the NIST ThermoML archive (doi:10.1021/je050020m)
